According to ChEMBL document CHEMBL1201862, “PubChem BioAssay data set” (2004):
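Assay format: 96-well plates, 48-hour exposure. The concentration for 50% growth inhibition is given as GI50.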 Calls of active or inactive are those of the source. Rule as the data show it: active = GI50 up to about 1.1 µM and inactive = higher.

Columns and labels:
Experiment in all cases: inhibition of tumour cell growth, NCI panel, 48 h
TK-10 = test system: TK-10
SK-MEL-2 = test system: SK-MEL-2
RPMI-8226 = test system: RPMI-8226
Malme-3M = test system: Malme-3M
SK-MEL-5 = test system: SK-MEL-5
MOLT-4 = test system: MOLT-4
UO-31 = test system: UO-31
SF-539 = test system: SF-539
OVCAR-4 = test system: OVCAR-4
SF-295 = test system: SF-295
OVCAR-5 = test system: OVCAR-5
HCT-116 = test system: HCT-116
LOX IMVI = test system: LOX IMVI
SW-620 = test system: SW-620
U-251 = test system: U-251
A549 = test system: A549
IGROV-1 = test system: IGROV-1
CAKI-1 = test system: CAKI-1
SNB-75 = test system: SNB-75
NCI-H226 = test system: NCI-H226

Measured: GI50

CNc1ccccc1-c1nc2ccccc2c(=O)o1
inactive: TK-10 > 100 µM | SK-MEL-2 > 100 µM | RPMI-8226 > 100 µM | Malme-3M > 100 µM | SK-MEL-5 > 100 µM | MOLT-4 > 100 µM | UO-31 > 100 µM | SF-539 35 µM | OVCAR-4 > 100 µM | SF-295 41.2 µM | OVCAR-5 > 100 µM | HCT-116 > 100 µM | LOX IMVI > 100 µM | SW-620 > 100 µM | U-251 > 100 µM | A549 > 100 µM | IGROV-1 74.1 µM | CAKI-1 > 100 µM | SNB-75 27.4 µM | NCI-H226 > 100 µM
